Measured values from patent US20110039762A1, “TARGETED ANTIMICROBIAL MOIETIES” (C3 JIAN, INC., priority 2009, published 2011).
Entries after “also recorded” stand apart in the source; their conditions may differ.

What was measured:
[1] = system: MRSA; assay: Kill or inhibit growth/proliferation; morphology, biofilm and growth disruption (Tables 5, 6); format: cell-based, Methicillin-resistant Staphylococcus aureus; parameters: key: A: Peptide aggregates; B: Less hyphal formation; Clumps; Diffuse clumps and small polyps; F: Diffuse growth; H: Thin; I: Growth inhibition; Microcolony formation; Rippled; Small polyps; Thick; W: Halo formation on top, microlonies on bottom; further: test concentration or dose not given here
[2] = system: S. pneumoniae; assay: as above; format: cell-based, Streptococcus pneumoniae; parameters: key: A: Peptide aggregates; B: Less hyphal formation; Clumps; Diffuse clumps and small polyps; F: Diffuse growth; H: Thin; I: Growth inhibition; Microcolony formation; Rippled; Small polyps; Thick; W: Halo formation on top, microlonies on bottom; further: test concentration or dose not given here
[3] = system: microorganisms (e.g., bacteria, yeasts, fungi); assay: Targeting peptide binding to target microorganisms (Table 3); conditions: preferably 1x PBS; for Target(s) (microorganisms bound by the targeting peptide): peptide binding in aqueous buffers varied by peptide solubility
[4] = system: microorganisms; assay: Peptides having multiple activities (targeting/binding, antimicrobial, growth or phenotype altering)
Source text: In certain embodiments, peptides described herein can have multiple activities. Thus for example, a peptide can have both binding/targeting activity and antimicrobial activity. Such peptides can be used, e.g., in a chimeric construct, for any or all of these properties. Thus, for example, a peptide designated “B” in Table 8 can be used as a targeting peptide. If it is also designated G or M it can also be used for antimicrobial activity.

[5] = system: S. epidermidis; assay: Kill or inhibit growth/proliferation; morphology, biofilm and growth disruption (Tables 5, 6); format: cell-based, Staphylococcus epidermidis; parameters: key: A: Peptide aggregates; B: Less hyphal formation; Clumps; Diffuse clumps and small polyps; F: Diffuse growth; H: Thin; I: Growth inhibition; Microcolony formation; Rippled; Small polyps; Thick; W: Halo formation on top, microlonies on bottom; further: test concentration or dose not given here
[6] = microorganism(s) the targeting peptide binds, peptide binding conducted in aqueous buffers varied by peptide solubility
[7] = microorganism the targeting peptide binds, binding in aqueous buffers varied by peptide solubility
[8] = microorganism(s) the targeting peptide binds, binding in aqueous buffers depending on peptide solubility

## MQIFYIKTKIFLSFFLFLLIFSQCFYKIEE [PF-442]
[1]
  Organism, effect: MRSA (M)
[2]
  Organism, effect: S. pneumoniae (C)
[3]; [6]
  Target(s): S. epidermidis; also recorded: E. coli; also recorded: C. albicans; also recorded: S. pneumoniae; also recorded: E. faecalis
[4]
  Activities: G B

## PF-009: peptide having multiple activities (chain 1 SKKYNHILNQENR; chain 2 SKKYNHILNQENR; Peptide with targeting and/or antimicrobial activity)
[5]
  Organism, effect: S. epidermidis (S)
[3]; [7]
  Target(s): M. luteus; also recorded: P. mirabilis; also recorded: C. albicans
[4]
  Activities: G B

## PF-034: peptide having multiple activities (chain 1 EPKKKHFPKMESASSEP; chain 2 EPKKKHFPKMESASSEP; Peptide with targeting and/or antimicrobial activity)
[5]
  Organism, effect: S. epidermidis (A)
[3]; [7]
  Target(s): M. luteus
[4]
  Activities: G B

## PF-049: peptide having multiple activities (chain 1 AYYLKRREEKGK; chain 2 AYYLKRREEKGK; Peptide with targeting and/or antimicrobial activity)
[1]
  Organism, effect: MRSA (S)
[3]; [7]
  Target(s): S. epidermidis and MRSA and C. jeikeium and C. jejuni
[4]
  Activities: G B

## PF-058: peptide having multiple activities (chain 1 FADQSQDNA; chain 2 FADQSQDNA; Peptide with targeting and/or antimicrobial activity)
[1]
  Organism, effect: MRSA (M)
[3]; [7]
  Target(s): S. epidermidis and M. luteus and E. coli and C. albicans and MRSA and C. jeikeium and C. jejuni
[4]
  Activities: G B

## PF-123: peptide having multiple activities (TTRPQVAEDRQLDDALKETFPASDPISP; Peptide with targeting and/or antimicrobial activity)
[5]
  Organism, effect: S. epidermidis (M)
[3]; [8]
  Target(s): M. luteus; also recorded: E. coli
[4]
  Activities: G B

## PF-149: peptide having multiple activities (GKVSVLTRVPRSLGGAPANQ; Peptide with targeting and/or antimicrobial activity)
[1]
  Organism, effect: MRSA (H)
[3]; [8]
  Target(s): S. epidermidis and M. luteus and E. coli and MRSA and C. jeikeium
[4]
  Activities: G B

## PF-156: peptide having multiple activities (LITAEQPATAPIAGK; Peptide with targeting and/or antimicrobial activity)
[1]
  Organism, effect: MRSA (H)
[3]; [8]
  Target(s): S. epidermidis; also recorded: C. jeikeium
[4]
  Activities: G B

## PF-157: peptide having multiple activities (HTAVVWLAGVSGCVALSHCEPA; Peptide with targeting and/or antimicrobial activity)
[5]
  Organism, effect: S. epidermidis (M)
[4]
  Activities: G B

## PF-180: peptide having multiple activities (SGLGDLGFSSEAK; Peptide with targeting and/or antimicrobial activity)
[5]
  Organism, effect: S. epidermidis (C)
[3]; [8]
  Target(s): S. epidermidis and M. luteus and P. aeruginosa and C. albicans and MRSA and E. faecalis and C. jejuni and M. smegmatis
[4]
  Activities: G B

## PF-192: peptide having multiple activities (VEEDEAPPPHY; Peptide with targeting and/or antimicrobial activity)
[5]
  Organism, effect: S. epidermidis (D)
[3]; [8]
  Target(s): S. epidermidis; also recorded: M. luteus; also recorded: P. aeruginosa; also recorded: C. albicans; also recorded: E. faecalis; also recorded: C. jeikeium
[4]
  Activities: G B

## PF-233: peptide having multiple activities (DANAMARTTIAIVYILALIALTISYSL; Peptide with targeting and/or antimicrobial activity)
[5]
  Organism, effect: S. epidermidis (C)
[3]; [8]
  Target(s): S. epidermidis; also recorded: M. luteus; also recorded: P. aeruginosa; also recorded: A. baumannii
[4]
  Activities: G B

## PF-290 (MVHDMTNGTLIIVKH; Peptide with targeting and/or antimicrobial activity)
[5]
  Organism, effect: S. epidermidis (C)

## PF-293 (YDPLK; Peptide with targeting and/or antimicrobial activity)
[5]
  Organism, effect: S. epidermidis (C)

## PF-310 (GVALIGTILVPLLSGLFG; Peptide with targeting and/or antimicrobial activity)
[5]
  Organism, effect: S. epidermidis (C)

## PF-382: peptide having multiple activities (chain 1 KYKCSWCKRVYTLRKDHKTAR; chain 2 KYKCSWCKRVYTLRKDHKTAR; Peptide with targeting and/or antimicrobial activity)
[1]
  Organism, effect: MRSA (M)
[3]; [8]
  Target(s): S. epidermidis; also recorded: B. subtilis; also recorded: B. fragilis; also recorded: E. coli; also recorded: P. aeruginosa; also recorded: E. faecalis; also recorded: C. jeikeium; also recorded: C. jejuni
[4]
  Activities: G B

## PF-405: peptide having multiple activities (LVRIEVDDLEEWYERNFI; Peptide with targeting and/or antimicrobial activity)
[1]
  Organism, effect: MRSA (M)
[3]; [6]
  Target(s): S. epidermidis; also recorded: E. coli; also recorded: E. faecalis
[4]
  Activities: G B

## PF-539: peptide having multiple activities (chain 1 SIILTKKKRRKIPLSIDSQIYKYTFKQ; chain 2 SIILTKKKRRKIPLSIDSQIYKYTFKQ; Peptide with targeting and/or antimicrobial activity)
[1]
  Organism, effect: MRSA (H)
[2]
  Organism, effect: S. pneumoniae (A)
[4]
  Activities: G B

## PF-551: peptide having multiple activities (chain 1 QVKEKRREIELQFRDAEKKLEASVQAE; chain 2 QVKEKRREIELQFRDAEKKLEASVQAE; Peptide with targeting and/or antimicrobial activity)
[1]
  Organism, effect: MRSA (C)
[3]; [6]
  Target(s): S. pneumoniae
[4]
  Activities: G B

## PF-642: peptide having multiple activities (chain 1 FTTPMIGIPAGLLGGSYYLKRREEKGK; chain 2 FTTPMIGIPAGLLGGSYYLKRREEKGK; Peptide with targeting and/or antimicrobial activity)
[1]
  Organism, effect: MRSA (M)
[3]
  Target(s) (microorganisms bound by the targeting peptide): M. luteus and MRSA and C. jeikeium
[4]
  Activities: G B

## PF-658 (chain 1 PTTPPPTTPPEIPTGGTVIST; chain 2 PTTPPPTTPPEIPTGGTVIST; Peptide with targeting and/or antimicrobial activity)
[1]
  Organism, effect (morphology, biofilm and growth disruption): MRSA (R)
[2]
  Organism, effect (morphology, biofilm and growth disruption): S. pneumoniae (H)
[3]
  Target(s) (microorganisms bound by the targeting peptide): Mycobacteria spp

## PF-694 (chain 1 DLIRPLYSMSAPSVA; chain 2 DLIRPLYSMSAPSVA; Peptide with targeting and/or antimicrobial activity)
[1]
  Organism, effect (morphology, biofilm and growth disruption): MRSA (R)
[2]
  Organism, effect (morphology, biofilm and growth disruption): S. pneumoniae (A)
[3]
  Target(s) (microorganisms bound by the targeting peptide): Mycobacteria spp

## PF-738: peptide having multiple activities (KSGATSAASGAKSGASS; Peptide with targeting and/or antimicrobial activity)
[1]
  Organism, effect (morphology, biofilm and growth disruption): MRSA (M)
[3]
  Target(s) (microorganisms bound by the targeting peptide): S. epidermidis; also recorded: C. albicans; also recorded: C. jeikeium
[4]
  Activities: G B

## PF-764: peptide having multiple activities (GYFEPGKRD; Peptide with targeting and/or antimicrobial activity)
[1]
  Organism, effect (morphology, biofilm and growth disruption): MRSA (D)
[2]
  Organism, effect (morphology, biofilm and growth disruption): S. pneumoniae (H)
[3]
  Target(s) (microorganisms bound by the targeting peptide): S. epidermidis and M. luteus and C. albicans and MRSA and S. pneumoniae and E. faecalis and C. jeikeium
[4]
  Activities: G B
